Results taken from PMC11310081, “Deep-learning-enabled antibiotic discovery through molecular de-extinction” (Nature Biomedical Engineering, 2024).
Converted amounts (≈) assume the structure as drawn. Read-outs that look alike come from different tables or passages of the source. Peptide text beside a SMILES is read from it.

Experiments:
[1] = test system: E. faecium ATCC 700221 (vancomycin-resistant strain); format: cell-based, Enterococcus faecium; details: ATCC 700221, 20 h
From the text: (§1) The following Gram-negative bacteria were used in our study: A. baumannii ATCC 19606, E. coli ATCC 11775, E. coli AIC221 (E. coli MG1655 phnE_2::FRT), E. coli AIC222 (E. coli MG1655 pmrA53 phnE_2::FRT (colistin resistant)), K. pneumoniae ATCC 13883, P. aeruginosa PAO1 and P. aeruginosa PA14. The following Gram-positive bacteria were also used in our study: S. aureus ATCC 12600, S. aureus ATCC BAA-1556 (methicillin-resistant strain), E. faecalis ATCC 700802 (vancomycin-resistant strain) and E. faecium ATCC 700221 (vancomycin-resistant strain). Bacteria were grown from frozen stocks and plated on Luria–Bertani (LB) or Pseudomonas isolation agar plates (P. aeruginosa strains) and incubated overnight at 37 °C. After the incubation period, a single colony was transferred to 5 ml of LB medium, and cultures were incubated overnight (16 h) at 37 °C. The following day, an inoculum was prepared by diluting the overnight cultures 1:100 in 5 ml of the respective media and incubating them at 37 °C until bacteria reached logarithmic phase (OD600 = 0.3–0.5).
(§2) The in vitro antimicrobial activity of the peptides was assessed by using the broth microdilution assay. […] Aqueous solutions of the peptides were added to the plate at concentrations ranging from 1 to 64 μmol l^−1. […] The optical density of the plates was measured at 600 nm using a spectrophotometer. All assays were done as three biological replicates.

[2] = test system: HEK293T cells
Description: HEK293T cells were obtained from the American Type Culture Collection (CRL-3216). The cells were cultured in high-glucose Dulbecco’s modified Eagle’s medium supplemented with 1% penicillin and streptomycin (antibiotics) and 10% fetal bovine serum and grown at 37 °C in a humidified atmosphere containing 5% CO2.
One day before the experiment, an aliquot of 100 μl of the cells at 50,000 cells per ml was seeded into each well of the cell-treated 96-well plates used in the experiment (that is, 5,000 cells per well). […] After the incubation period, we performed the 3-(4,5-dimethylthiazol-2-yl)-2,5-diphenyltetrazolium bromide tetrazolium reduction assay (MTT assay)[53]. The MTT reagent was dissolved at 0.5 mg ml^−1 in medium without phenol red and was used to replace cell culture supernatants containing the peptides (100 μl per well), and the samples were incubated for 4 h at 37 °C in a humidified atmosphere containing 5% CO2 yielding the insoluble formazan salt. The resulting salts were then resuspended in hydrochloric acid (0.04 mol l^−1) in anhydrous isopropanol and quantified by spectrophotometric measurements of absorbance at 570 nm. All assays were done as three biological replicates.
Unless otherwise stated, all assays were performed in three independent biological replicates as indicated in each figure legend and Methods sections. The cytotoxic activities values were estimated using non-linear regression based on the range of concentrations screened and were shown as the values that cause lysis of 50% of the cells in the experiment. Two technical replicates were performed in the cytotoxicity assays within each of the three biological replicates.

[3] = test system: 11 clinically relevant bacterial pathogens; format: cell-based; details: Supplementary Dataset 2; against the 11 pathogens tested
From the text: as §1, §2

[4] = test system: A. baumannii ATCC 19606; format: cell-based, Acinetobacter baumannii; details: ATCC 19606, 20 h
From the text: as §1, §2

[5] = test system: E. coli AIC221; format: cell-based, Escherichia coli; details: AIC221, 20 h
From the text: as §1, §2

[6] = test system: E. coli ATCC 11775; format: cell-based, Escherichia coli; details: ATCC 11775, 20 h
From the text: as §1, §2

[7] = test system: K. pneumoniae ATCC 13883; format: cell-based, Klebsiella pneumoniae; details: ATCC 13883, 20 h
From the text: as §1, §2

[8] = test system: S. aureus ATCC BAA-1556 (methicillin-resistant strain); format: cell-based, Staphylococcus aureus; details: ATCC BAA-1556, 20 h
From the text: as §1, §2

Compound | Minimal inhibitory concentration, E. faecium ATCC700221-VRE [1] | CC50 ([2]; 24 h) | TI (therapeutic index) ([2]; 24 h) | Active or Inactive [3] | Minimal inhibitory concentration, A. baumannii ATCC19606 [4] | Minimal inhibitory concentration, E. coli AIC221 [5] | Minimal inhibitory concentration, E. coli ATCC11775 [6] | Minimal inhibitory concentration, K. pneumoniae ATCC133883 [7] | Minimal inhibitory concentration, S. aureus ATCC BAA-1556-MRSA [8] | CC50 [2] | TI (therapeutic index) [2]
CC[C@H](C)[C@H](NC(=O)[C@H](Cc1ccccc1)NC(=O)[C@H](CC(N)=O)NC(=O)[C@@H](NC(=O)[C@@H](NC(=O)[C@H](Cc1c[nH]cn1)NC(=O)[C@@H](N)CC(C)C)[C@@H](C)O)[C@@H](C)CC)C(=O)N[C@H](C(=O)N[C@@H](CCCCN)C(=O)N[C@@H](CO)C(=O)N[C@@H](CC(C)C)C(=O)N[C@@H](CC(C)C)C(=O)N[C@@H](CC(C)C)C(=O)O)[C@@H](C)CC [Bisonin-1] (H-LHTINFIIKSLLL-OH; N-terminus and C-terminus assumed) | 16 µM (≈ 24.4 µg/mL) | > 128 µM | > 8 | Active | – | – | – | – | – | – | –
CC[C@H](C)[C@H](NC(=O)[C@H](CCCCN)NC(=O)[C@@H](NC(=O)[C@H](Cc1c[nH]c2ccccc12)NC(=O)[C@@H](N)CCCCN)[C@@H](C)O)C(=O)N[C@@H](Cc1ccc(O)cc1)C(=O)N[C@@H](CC(C)C)C(=O)N1CCC[C@H]1C(=O)N[C@@H](CC(C)C)C(=O)N[C@@H](CC(C)C)C(=O)N[C@@H](CC(C)C)C(=O)N1CCC[C@H]1C(=O)N[C@@H](CC(C)C)C(=O)O [Bisonin-2] (H-KWTKIYLPLLLPL-OH; N-terminus and C-terminus assumed) | 8 µM (≈ 12.8 µg/mL) | > 128 µM | – | Active | 8 µM (≈ 12.8 µg/mL) | – | – | – | – | – | –
CC[C@H](C)[C@H](NC(=O)[C@H](CC(C)C)NC(=O)[C@H](CCCNC(=N)N)NC(=O)[C@H](Cc1c[nH]c2ccccc12)NC(=O)[C@H](CC(C)C)NC(=O)[C@@H](NC(=O)[C@H](CCCNC(=N)N)NC(=O)[C@H](CCC(N)=O)NC(=O)[C@H](Cc1ccc(O)cc1)NC(=O)[C@H](CC(C)C)NC(=O)[C@@H](N)CCCCN)[C@@H](C)CC)C(=O)N[C@@H](CO)C(=O)N[C@@H](CCC(=O)O)C(=O)N[C@@H](CC(C)C)C(=O)O [Equusin-3] (H-KLYQRILWRLISEL-OH; N-terminus and C-terminus assumed) | 8 µM (≈ 14.6 µg/mL) | > 128 µM | – | Active | – | 4 µM (≈ 7.32 µg/mL) | 16 µM (≈ 29.3 µg/mL) | – | – | – | –
CC[C@H](C)[C@H](NC(=O)[C@@H](NC(=O)[C@H](Cc1c[nH]c2ccccc12)NC(=O)[C@H](CCCCN)NC(=O)[C@@H](N)CCCCN)C(C)C)C(=O)N[C@@H](CCCCN)C(=O)N[C@@H](CO)C(=O)N[C@H](C(=O)N[C@H](C(=O)N[C@@H](Cc1ccccc1)C(=O)N[C@@H](Cc1ccccc1)C(=O)N[C@@H](CCCCN)C(=O)O)C(C)C)C(C)C [Hesperelin-2] (H-KKWVIKSVVFFK-OH; N-terminus and C-terminus assumed) | 8 µM (≈ 12.1 µg/mL) | > 128 µM | – | Active | 16 µM (≈ 24.1 µg/mL) | 8 µM (≈ 12.1 µg/mL) | – | 32 µM (≈ 48.3 µg/mL) | 16 µM (≈ 24.1 µg/mL) | – | –
CC[C@H](C)[C@H](NC(=O)[C@H](CCCCN)NC(=O)[C@H](CC(C)C)NC(=O)[C@@H](NC(=O)[C@@H](N)CCCCN)[C@@H](C)O)C(=O)N[C@H](C(=O)N[C@@H](CCCNC(=N)N)C(=O)N[C@@H](CC(C)C)C(=O)N[C@@H](CC(C)C)C(=O)N[C@@H](Cc1ccccc1)C(=O)O)[C@@H](C)CC [Mammuthusin-3] (H-KTLKIIRLLF-OH; N-terminus and C-terminus assumed) | – | > 128 µM | – | Active | 32 µM (≈ 39.8 µg/mL) | 16 µM (≈ 19.9 µg/mL) | – | – | – | – | –
CC[C@H](C)[C@H](NC(=O)[C@@H](NC(=O)[C@H](CCSC)NC(=O)[C@@H](N)Cc1c[nH]c2ccccc12)[C@@H](C)O)C(=O)N[C@@H](Cc1c[nH]cn1)C(=O)N[C@@H](C)C(=O)N[C@@H](CC(C)C)C(=O)N[C@@H](CCCCN)C(=O)N[C@@H](CC(C)C)C(=O)N[C@@H](CO)C(=O)N[C@@H](CC(C)C)C(=O)N[C@@H](CO)C(=O)N[C@@H](Cc1ccccc1)C(=O)N[C@@H](CCCCN)C(=O)N[C@@H](CC(C)C)C(=O)O [Mammutin-1] (H-WMTIHALKLSLSFKL-OH; N-terminus and C-terminus assumed) | 2 µM (≈ 3.58 µg/mL) | > 128 µM | > 64 | Active | – | – | – | – | – | – | –
CC[C@H](C)[C@H](NC(=O)[C@H](CCCCN)NC(=O)[C@H](CO)NC(=O)[C@H](CC(N)=O)NC(=O)[C@H](Cc1ccccc1)NC(=O)[C@H](Cc1c[nH]cn1)NC(=O)[C@H](Cc1ccccc1)NC(=O)[C@@H](N)Cc1c[nH]c2ccccc12)C(=O)N[C@@H](CC(C)C)C(=O)N[C@@H](CC(C)C)C(=O)N[C@@H](CC(C)C)C(=O)N[C@H](C(=O)NCC(=O)N[C@@H](CC(C)C)C(=O)O)[C@@H](C)O [Mylodonin-1] (H-WFHFNSKILLLTGL-OH; N-terminus and C-terminus assumed) | 8 µM (≈ 13.5 µg/mL) | > 128 µM | > 16 | Active | – | – | – | – | – | – | –
CC[C@H](C)[C@H](NC(=O)[C@H](Cc1ccccc1)NC(=O)[C@@H](N)CCCCN)C(=O)N[C@@H](CC(C)C)C(=O)N[C@@H](CC(N)=O)C(=O)N[C@@H](Cc1ccccc1)C(=O)N[C@@H](CCCCN)C(=O)N[C@H](C(=O)N1CCC[C@H]1C(=O)N[C@H](C(=O)N[C@@H](CO)C(=O)N[C@@H](Cc1ccccc1)C(=O)N[C@@H](CCCCN)C(=O)O)[C@@H](C)CC)[C@@H](C)CC [Pinguinusin-1] (H-KFILNFKIPISFK-OH; N-terminus and C-terminus assumed) | – | > 128 µM | – | Active | 32 µM (≈ 51 µg/mL) | 4 µM (≈ 6.38 µg/mL) | 16 µM (≈ 25.5 µg/mL) | 16 µM (≈ 25.5 µg/mL) | – | – | –
CC[C@H](C)[C@H](NC(=O)[C@H](CCCCN)NC(=O)[C@@H](NC(=O)[C@H](Cc1c[nH]c2ccccc12)NC(=O)[C@H](CCCCN)NC(=O)[C@@H](N)CCCCN)[C@@H](C)O)C(=O)N[C@@H](Cc1ccc(O)cc1)C(=O)N[C@@H](CO)C(=O)N1CCC[C@H]1C(=O)N[C@@H](CC(C)C)C(=O)N[C@@H](CO)C(=O)N[C@@H](CC(C)C)C(=O)O [Smilodin-1] (H-KKWTKIYSPLSL-OH; N-terminus and C-terminus assumed) | – | > 128 µM | > 2 | Active | – | – | – | 64 µM (≈ 93.7 µg/mL) | – | – | –
CC[C@H](C)[C@H](NC(=O)[C@@H](N)[C@@H](C)O)C(=O)N[C@@H](CCCCN)C(=O)N[C@@H](CC(C)C)C(=O)N[C@@H](Cc1ccccc1)C(=O)N[C@@H](CC(C)C)C(=O)N[C@@H](CO)C(=O)N[C@@H](Cc1ccccc1)C(=O)N[C@@H](CCCCN)C(=O)N[C@@H](CC(C)C)C(=O)O [Xenothrixin-1] (H-TIKLFLSFKL-OH; N-terminus and C-terminus assumed) | – | 70.77 µM | – | Active | 8 µM (≈ 9.68 µg/mL) | – | – | – | – | 70.77 µM | 8.84
